Earlier results as cited in US20230096856A1, “COMBINED TREATMENT REGIMEN OF […]/SEDATION WITH ADMINISTRATION OF P[…] ASSOCIATED WITH REDUCTION IN NEUROP[…]” (priority 2021, published 2023).

Columns and labels:
[1] = system: extracellular glutamate levels; conditions: rat models
sigma-1 receptors [2] = system: sigma-1 receptors
[3] = system: ventral dentate gyrus of the hippocampus; conditions: single dose
Sigma-1 receptors [4] = molecular target: Sigma-1 receptors (Homo sapiens, UniProt Q99720); conditions: receptors that modulate immune responses in human monocyte-derived dendritic cells
Sigma-1 receptors, sequence (Q99720 whole entry): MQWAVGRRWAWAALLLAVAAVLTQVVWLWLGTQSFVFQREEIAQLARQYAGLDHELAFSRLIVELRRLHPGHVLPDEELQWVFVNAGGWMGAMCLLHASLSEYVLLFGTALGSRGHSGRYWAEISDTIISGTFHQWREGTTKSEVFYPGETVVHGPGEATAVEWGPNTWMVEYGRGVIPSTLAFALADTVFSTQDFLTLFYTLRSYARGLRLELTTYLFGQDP

[5] = system: hallucinogenic experience; conditions: in vivo
tinnitus = conditions: single dose, mice
BDNF = conditions: rats exposed to psychological stress
5-HT2A receptors = 5-HT2A receptors (Homo sapiens, UniProt P28223)
5-HT2A receptors, sequence (P28223 whole entry): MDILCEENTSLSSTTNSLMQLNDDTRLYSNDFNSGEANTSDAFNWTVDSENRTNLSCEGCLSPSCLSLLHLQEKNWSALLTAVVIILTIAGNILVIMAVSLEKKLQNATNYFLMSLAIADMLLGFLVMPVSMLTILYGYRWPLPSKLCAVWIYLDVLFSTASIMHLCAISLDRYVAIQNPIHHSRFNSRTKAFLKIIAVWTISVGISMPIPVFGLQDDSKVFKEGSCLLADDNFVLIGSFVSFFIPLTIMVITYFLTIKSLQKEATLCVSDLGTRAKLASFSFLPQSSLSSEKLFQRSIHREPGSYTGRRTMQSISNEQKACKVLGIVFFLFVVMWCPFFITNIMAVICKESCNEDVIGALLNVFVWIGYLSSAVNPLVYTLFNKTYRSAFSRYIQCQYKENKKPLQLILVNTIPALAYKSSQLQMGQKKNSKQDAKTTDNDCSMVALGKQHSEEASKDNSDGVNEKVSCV

[6] = system: N-methyl-D-aspartate (NMDA) receptors
[7] = system: gamma-aminobutyric acid type A receptors; conditions: acutely
AMPA receptor = conditions: sub-anesthetic dose, animal studies

Compound: CNC1(c2ccccc2Cl)CCCCC1=O (stereo not drawn) [ketamine]
- extracellular glutamate levels in prefrontal-limbic circuitry [1]: increases extracellular glutamate levels

Compound: COc1ccc2[nH]cc(CCN(C)C)c2c1 [5-MeO-DMT, 5-5-Methoxy-N,N-dimethyltryptamine]
- IFNc and GM-CSF expression (sigma-1 receptors [2]): suppressing
- secretion level of anti-inflammatory interleukin 10 cytokine (sigma-1 receptors [2]): increase the secretion level
- PLA2 activation (phospholipase A2 (PLA2)): differentially strong phospholipase A2 (PLA2) activation
- cell proliferation and neuronal survivability in the ventral dentate gyrus of the hippocampus [3]: stimulates cell proliferation and neuronal survivability
- neurogenesis in the ventral dentate gyrus ([3]; adult mice): enhances neurogenesis
- affinity for Sigma-1 receptors (Sigma-1 receptors [4]): functionally significant affinity
- duration of acute hallucinogenic state [5]: 5 to 20 min
- duration of hallucinogenic experience [5]: 10 to 20 min
- tinnitus (tinnitus): can be reduced
- mGluR5 regulation (human cerebral organoids): downregulation of mGluR5
- neural plasticity and anti-inflammatory activity (human cerebral organoids): potentiation of neural plasticity and elevated anti-inflammatory activity

Compound: O=C(c1ccc(F)cc1)C1CCN(CCn2c(=O)[nH]c3ccccc3c2=O)CC1 [ketanserin]
- BDNF mRNA (BDNF): reducing the presence BDNF mRNA
- immunoreactivity indicative of BDNF presence in brain areas (BDNF): inhibits BDNF immunoreactivity

Compound: ibogaine
- interaction with 5-HT2A receptors (5-HT2A receptors): interact minimally, indirectly, or not at all

Compound: CC(C)c1cccc(C(C)C)c1O [propofol]
- inhibition of NMDA receptors [6]: does not induce inhibition
- LTP induction [7]: inhibits long term potentiation (LTP) induction
- expression of AMPA pGluR1 (AMPA receptor): increase the expression of AMPA pGluR1 in dose-dependent manner
- speed and degree of glutamate-induced desensitization of the AMPA receptor in neurons (AMPA receptor): can decrease
- time after induction until desired SR>80% was reached (depression; EEG suppression ratio): About five
- QIDS-SR scale scores (depression; after approximately four sessions (1 week), asymptote at approximately 7 sessions (two weeks)): significant reduction
- average recovery time until oriented to time and place (depression; after eye opening): 5 to 10 min
- cognitive side effects common for ECT (short term memory loss) (depression; in vivo): do not occur
- effect on efficacy of ECT in treating depression (depression; in vivo): does not diminish the efficacy
- period within which severity of self-report symptoms of moderate to severe depression is reduced (depression; in vivo): 1-2 weeks
- time to state of unconsciousness upon induction (depression; in vivo): one

Compound: COC(=O)[C@@H]1C[C@H](OC(C)=O)C(=O)[C@H]2[C@@]1(C)CC[C@H]1C(=O)O[C@H](c3ccoc3)C[C@]21C [salvinorin A]
- interaction with 5-HT2A receptors (5-HT2A receptors): interact minimally, indirectly, or not at all
